Assay results from patent US20150105281A1, “Method for the Selection of Serum Biomarkers of Epigenetic Alterations, Particularly of Global Hypomethylation and Their Uses” (Universite Paris Descartes, priority 2012, published 2015).

Tests used:
Assay type in all cases: cell-based, human
pro-EPIL = experiment: Pro-EPIL in supernatants of cancer cell lines after induction of DNA demethylation (ELISA); conditions: 10 cancer cell lines, 72 h at dose A or dose B, supernatant, vs cells not exposed (FIG. 4A)
Excerpt: (§1) To further determine the impact of global demethylation on the expression of hCGβ type II and pro-EPIL, we used 5-aza-2′ deoxycytidine (5-aza-dC), a strong inducer of DNA de-methylation and measured the levels of hCGβ type II and pro-EPIL in the supernatants of 10 cancer cell lines of various histological origin, treated at two different doses of 5-aza-dC. On the curve of viability of each cell line treated with 5-aza-dC at increasing doses, the two selected doses that have been selected for studying the effect of global hypomethylation by 5-aza-dC on the production of hCGβ type II and pro-EPIL were the doses corresponding to the 5-aza-dC concentrations at the inflexion point and at the 50% inhibition of cell viability (Inhibition growth Concentration 50% or IC 50), respectively (FIG. 3 and Table 2).
(§2) Experiments were performed as previously described. Briefly, in 75 cm^2 size cell culture flaks, cell lines were grew up to more than 50% confluence before treating them for 72 h with 5-aza-dC at either the doses A corresponding at the Inflection Points, or the doses B corresponding to IC50. […] After trypsinisation, cells were counted in malassez chamber using trypan blue. […] Then, the pro-EPIL and hCG B type II concentrations were determined by an ELISA immunoassay and an automated KRYPTOR immunoassay, respectively (Table 2, FIG. 4A, FIG. 4B).

hCGβ type II = hCGβ type II in supernatants of cancer cell lines after induction of DNA demethylation (KRYPTOR immunoassay); conditions: 10 cancer cell lines, 72 h at dose A or dose B, supernatant, vs cells not exposed (FIG. 4B)
Excerpt: as §1, §2

OBR = experiment: Cell viability (WST-1) with 5-aza-dC at increasing doses; conditions: 96 h
Excerpt: as §1
(§3) Briefly, 10,000 cells were plated in 96-well plates in 100 μl medium. After one day, dilution range of 5-aza-dC from 1,000 μM to 0.06 μM were added. After 96 h incubation time, 10 μl of WST-1 were added and optical density (O.D) were measured at 450 nm (FIG. 3 and Table 2).

A549 = experiment: as above
Excerpt: as §1, §3

SHP77 = experiment: as above
Excerpt: as §1, §3

CLRB018P = experiment: as above; conditions: 96 h
Excerpt: as §1, §3

HT1376 = experiment: as above
Excerpt: as §1, §3

JEG = experiment: as above; conditions: 96 h
Excerpt: as §1, §3

BC173 = experiment: as above; conditions: 96 h
Excerpt: as §1, §3

LCF09 = experiment: as above; conditions: 96 h
Excerpt: as §1, §3

JAR = experiment: as above; conditions: 96 h
Excerpt: as §1, §3

TC320X6 = experiment: as above; conditions: 96 h
Excerpt: as §1, §3

[1] = Homo sapiens, read-out: Dose B (5-aza-dC concentration at the 50% inhibition of cell viability, IC 50)

For `Nc1ncn([C@H]2C[C@H](O)[C@@H](CO)O2)c(=O)n1` [5-aza-dC, 5-aza-2′ deoxycytidine], the “Effect on the production of pro-EPIL” value (pro-EPIL) was “induced consistently an increase”, the “Cell lines with an increase in the production of hCGβ type II” value (hCGβ type II) was 7 out of 10 and the IC50 (OBR; [1]) was 20 µM. The “Dose A (5-aza-dC concentration at the inflexion point of the viability curve)” value (OBR; OBR, bladder, WST-1) was 6.5 µM, the “Dose A (5-aza-dC concentration at the inflexion point of the viability curve)” value (A549; A549, lung, 96 h, WST-1) was 12.5 µM and the IC50 (A549; Homo sapiens, A549, 96 h, read-out: Dose B (5-aza-dC concentration at the 50% inhibition of cell viability, IC 50)) was 50 µM. The IC50 (SHP77; Homo sapiens, SHP77, 96 h, read-out: Dose B (5-aza-dC concentration at the 50% inhibition of cell viability, IC 50)) was 27.5 µM, the “Dose A (5-aza-dC concentration at the inflexion point of the viability curve)” value (SHP77; SHP77, lung, 96 h, WST-1) was 8 µM and the “Dose A (5-aza-dC concentration at the inflexion point of the viability curve)” value (CLRB018P; CLRB018P, colon, WST-1) was 15.6 µM. The IC50 (CLRB018P; [1]) was 186 µM, the “Dose A (5-aza-dC concentration at the inflexion point of the viability curve)” value (HT1376; HT1376, bladder, 96 h, WST-1) was 1.6 µM and the IC50 (HT1376; Homo sapiens, HT-1376, 96 h, read-out: Dose B (5-aza-dC concentration at the 50% inhibition of cell viability, IC 50)) was 6.3 µM. For the same molecule, the IC50 (JEG; [1]) was 5 µM, the “Dose A (5-aza-dC concentration at the inflexion point of the viability curve)” value (JEG; JEG, placenta, WST-1) was 2.6 µM and the “Dose A (5-aza-dC concentration at the inflexion point of the viability curve)” value (BC173; BC173, breast, WST-1) was 1.95 µM. The IC50 (BC173; [1]) was 117 µM, the IC50 (LCF09; [1]) was 25 µM and the “Dose A (5-aza-dC concentration at the inflexion point of the viability curve)” value (LCF09; LCF09, lung, WST-1) was 5 µM. For the same molecule, the IC50 (JAR; [1]) was 17.7 µM, the “Dose A (5-aza-dC concentration at the inflexion point of the viability curve)” value (JAR; JAR, placenta, WST-1) was 2 µM and the IC50 (TC320X6; [1]) was 77 µM. For the same molecule, the “Dose A (5-aza-dC concentration at the inflexion point of the viability curve)” value (TC320X6; TC320X6, colon, WST-1) was 4 µM.
